What was measured:
[1] = test system: Mus musculus; assay: Epileptogenic activity in mouse, icv; assay type: functional
[2] = Displacement of [3H]AMPA from AMPA receptor in rat synaptic membrane; assay type: cell membranes
[3] = Displacement of [3H]kainic acid from Kainate receptor in rat synaptic membrane; assay type: cell membranes

SMILES | ED50 [1] | Ki [2] | Ki [3]
CN[C@H]1[C@H]2O[C@@](C[C@H](N)C(=O)O)(C(=O)O)C[C@H]2OC[C@H]1O [DYSIHERBAINE] | 13 pmol | 153 nM | 26 nM
N[C@@H](C[C@]1(C(=O)O)C[C@H]2O[C@H](CO)[C@@H](O)[C@@H](O)[C@H]2O1)C(=O)O [10-HYDROXY-METHYL-NEODYSIHERBAINE A] | 110 pmol | 153 nM | 790 nM
N[C@@H](C[C@]1(C(=O)O)C[C@H]2OC[C@@H](O)[C@@H](O)[C@H]2O1)C(=O)O [NEODYSIHERBAINE A] | 16 pmol | 151 nM | 52 nM

From ChEMBL document CHEMBL1139718, “Design, total synthesis, and biological evaluation of neodysiherbaine A derivative as potential probes” (Bioorg Med Chem Lett, 2006)
